Source: article PMC3150281, “Two Group A Streptococcal Peptide Pheromones Act through Opposing Rgg Regulators to Control Biofilm Development” (PLoS Pathogens, 2011)

Columns and labels:
[1] = test system: Pshp3 luxAB reporter; test: Luciferase reporter assay, Pshp3-luxAB, with synthetic peptides; format: cell-based, Streptococcus pyogenes NZ131; conditions: for Induction of luciferase activity at Pshp3 / Induction of luciferase at Pshp3 in wild-type bacteria: 50 nM peptide in CDM; for Induction of luciferase activity at Pshp3: crude peptide (31-50% pure), DMSO vehicle control, representative of at least three experiments; for Induction of luciferase at Pshp3 in wild-type bacteria: wild-type reporter strain JCC174 (mutated shp3 start codon); for Response at Pshp3 in Δrgg2 strain: Δrgg2 reporter strain JCC175
Protocol: (§1) Figure 3 SHP stimulation of luciferase production. For panels A and C, overnight GAS cultures were diluted into CDM and followed for growth and light production over time. For panels B and D-H, reporter strains were grown to log-phase (OD600 between 0.3 and 0.5) and then diluted 13-fold into conditioned (panel B) or fresh CDM containing 50 nM of the indicated peptide (panels D-H). For all synthetic peptide experiments, DMSO was included as a vehicle control. Data shown are representative of at least three independent experiments. (A) Expression of shp3 under its own promoter from a multi-copy plasmid (pSHP3) induces luciferase expression at both Pshp2 (triangles) and Pshp3 (squares); pLZ12-Sp is the vector-only control. (B) Luciferase-inducing activity is present in a cell-free culture supernatant prepared from mid-log phase Δrgg3 donor (JCC131) but not in wild-type (NZ131) or Δrgg3-shp3 (JCC132)-conditioned supernatants; Δrgg3-shp3 (JCC159) was used as the reporter strain, and fresh medium was included as a control. (C) Luciferase activity of a Δrgg3-shp3 strain (JCC168) expressing truncated versions of shp3 indicates the importance of the C-terminus. All truncation plasmids were derived from pSHP3; pSHP3_17-23 includes a methionine to initiate translation. (D) Synthetic full-length (sSHP3) and C-terminal eight amino acids (sSHP3-C8), but not reverse peptide (sSHP3-rev), induce luciferase activity in a Δrgg3-shp3 reporter strain (JCC168). (E) Amino acid substitutions within the C-terminus of SHP3 alter its reporter-inducing activity in a Δrgg3-shp3 reporter strain (JCC168). sSHP3-C8: DIIIIVGG; the sequences of synthetic peptides with amino acids substitutions are shown in the panel legend. […] Reverse peptide (sSHP2-C8-rev) was included as a control. (G) sSHP3-C8 induces a sustained response from the Pshp2 reporter in the wild-type strain (BNL148), while luciferase activity of a Δrgg3-shp3 strain (BNL150) wanes. (H) Synthetic C8 peptides stimulate modest luciferase activity in Δrgg2 strains with integrated Pshp2 (solid lines; BNL152) or Pshp3 (dotted lines; JCC175) reporters.
(§2) For luciferase assays, isolated colonies from the strains of interest were picked from a freshly streaked plate, inoculated into THY broth and grown overnight at 30°C. In the morning, cells were diluted 100-fold into CDM and incubated at 37°C. At each time point, 50 µL of each culture was removed to an opaque 96-well plate, samples were exposed to decyl aldehyde (Sigma) fumes for one minute, and counts per second (CPS) were quantified using a Wallac 1450 microbeta scintillation counter; the optical density (OD) at 600 nm was also measured at each time point. Relative light units (RLU) were calculated by normalizing CPS to OD. For the conditioned media experiment, strains of interest were grown in CDM to an OD of 0.3 to 0.5, cells were spun down, and supernatants were passed through a 0.22 µm filter; log-phase Δrgg3-shp3 reporter cells (JCC159) were diluted 1∶12 into conditioned supernatants, and light activity and OD were monitored as described above. For experiments with synthetic peptides, reporter strains were grown to an OD of 0.3 to 0.5 and then diluted into fresh CDM containing the peptide of interest, and light activity and OD were monitored as described above.
Synthetic peptides were purchased from Neo-Peptide (Cambridge, MA). Purities of crude preparations used in luciferase assays ranged from 31% to 50%. 95% pure preparations were used for electrophoretic mobility shift assays (EMSA) as described below. All peptides were reconstituted as 2 mM stocks in DMSO and stored in aliquots at -80°C. Subsequent dilutions for working stocks (50 µM) were made in DMSO and stored at −20°C.

[2] = test system: Pshp2 luxAB reporter; test: Luciferase reporter assay, Pshp2-luxAB, with synthetic peptides; format: cell-based, Streptococcus pyogenes NZ131; conditions: for Induction of luciferase at Pshp2 in wild-type bacteria: wild-type reporter strain BNL148, 50 nM peptide in CDM; for Maximal induction at Pshp2 in Δrgg2 strain: Δrgg2 reporter strain BNL152
Protocol: as §1, §2
Synthetic peptides were purchased from Neo-Peptide (Cambridge, MA). Purities of crude preparations used in luciferase assays ranged from 31% to 50%. […]

[3] = test system: Rgg3-Pshp3 DNA complex; test: EMSA, effect of peptide on Rgg3 binding to Pshp3 probe; parameters: species or system Streptococcus pyogenes NZ131; conditions: 2 µM pure (>95%) peptide added 20 min after 10 nM FAM probe; room temperature; native PAGE
Protocol: (§3) The NZ131 rgg3 gene (Spy 49_0449c) was amplified using gene-specific primers (rgg3_fwd_NdeI/rgg3_rev_BamHI) and cloned into a modified pET expression vector bearing N-terminal His-6 and SUMO tags; the resulting vector, pCA102, was electroporated into E. coli C41(DE3) before each purification. Expression of His6-sumo-rgg3 was induced at an OD600 of 0.8 with 0.5 mM IPTG for six hours at 30°C. Cells were pelleted and suspended in Buffer A (20 mM sodium phosphate buffer, pH 7.5; 1.5 mM MgCl2, 280 mM NaCl, 20 mM imidazole, 10 mM β-mercaptoethanol) with 0.1 mg mL^−1 lysozyme, 0.01 mg mL^−1 DNaseI (Sigma) and Complete EDTA-free protease inhibitor (Roche). Cells were disrupted by sonication on ice, and cellular debris was removed by centrifugation at 45,000 x g for 20 min at 4°C. His6-SUMO-Rgg3 was adsorbed to a HisTrap-HP Nickel column (GE Biosciences), then washed with 50 mM imidazole and eluted with 300 mM imidazole. The eluate was immediately exchanged into fresh Buffer A using a Zeba spin desalting column, 7K MWCO (Thermo Scientific). […]
(§4) All DNA fragments for EMSAs were amplified from chromosomal NZ131 DNA by PCR using primers described in Table S1, with select primers containing 5′-FAM fluorescent tags (Integrated DNA Technologies). […] All gel shifts were detected by fluorescence imaging using a Typhoon PhosphorImager (GE Life Sciences).

[4] = test system: Rgg3-Pshp2 DNA complex; test: EMSA, effect of peptide on Rgg3 binding to Pshp2 probe; parameters: species or system Streptococcus pyogenes NZ131; conditions: 2 µM pure (>95%) peptide added 20 min after 10 nM FAM probe; room temperature; native PAGE
Protocol: as §3, §4

[5] = test system: GAS NZ131 biofilm biomass; test: Biofilm assay, crystal violet staining; format: cell-based, Streptococcus pyogenes NZ131; conditions: 50 nM peptide
Protocol: Figure 6 Influence of Rgg regulators on biofilm production. SHPs can enhance biofilm biogenesis via the Rgg2/3 regulatory circuit and counter biofilm disassembly promoted by RopB. Crystal violet staining was performed to measure biofilm biomass of NZ131 derivatives grown 48 hours in 24-well polystyrene plates with (dark gray bars) or without (light gray bars) the addition of 50 nM sSHP3-C8. Levels of biofilm production were normalized to that of untreated NZ131 (wild type). Error bars indicate standard error from a minimum of three independent experiments.
Assays were performed as described by Manetti et al, with slight modifications. Briefly, each strain was grown overnight in THY at 30°C, diluted 1∶10 into fresh CDM, and 0.5 mL volumes were aliquoted to three separate wells of a 24-well polystyrene plate. When indicated, synthetic peptide was added to a final concentration of 50 nM. Plates where incubated at 37°C with 5% CO2 for 24 hours, then wells were washed with PBS and fresh CDM (containing peptide, if appropriate) was added. After an additional 24 hours of growth, each well was washed three times with PBS and stained with 0.2% crystal violet for 10 min. Excess crystal violet was aspirated off, and biofilms were washed three times with PBS. The biomass was then suspended in 1% SDS, and the absorbance at 540 nm was measured. Each strain was tested a minimum of three independent times on separate days, and each trial included NZ131 as the reference strain.

[6] = test system: Rgg3 (Streptococcus pyogenes NZ131 (serotype M49)); test: EMSA; conditions: 20 mM HEPES pH 7.9, 100 mM KCl, 12.5 mM MgCl2, 0.2 mM EDTA, 0.5 mM DTT, 0.5 mM CaCl2, 50 ug/mL salmon sperm DNA, 0.001 U/uL poly(dI-dC), 100 ug/mL BSA, 12% …
[7] = Δrgg3-shp3 reporter strain JCC168

With “EIIIIVGG [sSHP3-C8 with aspartic acid substituted by glutamate]” the “Induction of luciferase activity at Pshp3” value [1, 7] was “retained full activity”.
“-IIIIVGG [sSHP3-C8 without the N-terminal aspartic acid]” was tested, and the “Induction of luciferase activity at Pshp3” value [1, 7] was “complete loss of luciferase activity”.
With “DIIIIVGG [sSHP3-C8, synthetic peptide containing the C-terminal eight amino acids of SHP3 (DIIIIVGG)]” the “Induction of luciferase at Pshp3 in wild-type bacteria” value [1] was “stimulate induction and cross-induction”, the “Response of Pshp3 reporter in ΔoppD mutant” value ([1]; ΔoppD reporter strain JCC163, 50 nM peptide, response restored by pOppD) was “fails to respond” and the “Response at Pshp3 in Δrgg2 strain” value ([1]; 50 nM peptide) was “no response”. For the same substance, the “Induction of luciferase activity at Pshp3” value [1, 7] was “Luciferase induction was also observed”, the “Reporter induction relative to sSHP3 at identical molar concentrations” value ([1]; Δrgg3-shp3 reporter strain JCC168, Pshp3, 50 nM peptide) was “more than 10 fold” and the “Induction of luciferase at Pshp2 in wild-type bacteria” value [2] was “stimulate induction and cross-induction”. The “Maximal induction at Pshp2 in Δrgg2 strain” value ([2]; 50 nM peptide) was roughly 40 fold, the “Luciferase activity at Pshp2 over time in Δrgg3-shp3 strain” value ([2]; Δrgg3-shp3 reporter strain BNL150, 50 nM peptide, compared with wild type BNL148) was “wanes” and the “Disruption of Rgg3 binding to Pshp3 DNA” value [3] was “Rgg3-DNA complexes were disrupted”. The “Disruption of Rgg3 binding to Pshp2 DNA” value [4] was “Rgg3-DNA complexes were disrupted”, the “Biofilm formation, wild-type NZ131” value ([5]; 48 hours in CDM, 24-well polystyrene plates, normalized to untreated NZ131, minimum of three experiments) was “two-fold increase” and the “Biofilm production, ΔoppD mutant” value ([5]; ΔoppD (JCC135), 48 hours, crystal violet) was “could not stimulate biofilms”. The “Biofilm production, Δrgg2 mutant” value ([5]; Δrgg2 (JCC137), 48 hours, crystal violet) was “could not stimulate biofilms”, the “Biofilm production, Δrgg3 mutant” value ([5]; Δrgg3 (JCC131), 48 hours, crystal violet) was “did not further enhance biofilms” and the “Biofilm production, Δrgg3-shp3 mutant” value ([5]; Δrgg3-shp3 (JCC132), 48 hours, crystal violet) was “partially complemented”. The “Biofilm biomass, ΔropB strain” value ([5]; ΔropB (BNL146), 48 hours, crystal violet) was “increased six-fold”.
“NIIIIVGG [sSHP3-C8 with aspartic acid replaced by asparagine]” was tested, and the “Induction of luciferase activity at Pshp3” value [1, 7] was “decreased activity”.
Substance Pshp3 probe has a K half [6] of 100 nM.
Pshp2 probe showed a K half [6] of 100 nM.
In the case of “DIIIIVG- [sSHP3-C8 without the C-terminal glycine]”, the “Induction of luciferase activity at Pshp3” value [1, 7] is reported as “significantly decreased light activity”.
With “sSHP2-C8: synthetic C-terminal eight amino acids of SHP2 (DILIIVGG)” the “Induction of luciferase at Pshp3 in wild-type bacteria” value [1] was “stimulate induction and cross-induction”, the “Response at Pshp3 in Δrgg2 strain” value ([1]; 50 nM peptide) was “no response” and the “Induction of luciferase at Pshp2 in wild-type bacteria” value [2] was “stimulate induction and cross-induction”. For the same substance, the “Maximal induction at Pshp2 in Δrgg2 strain” value ([2]; 50 nM peptide) was 7 fold, the “Disruption of Rgg3 binding to Pshp3 DNA” value [3] was “only induced a small amount of disruption” and the “Disruption of Rgg3 binding to Pshp2 DNA” value [4] was “only induced a small amount of disruption”.
